{
  "source": "paper PMC4237307",
  "about": "(Chembiochem : a European journal of chemical biology, 2014)",
  "key": {"[1]": {"biological_target": "PfPK5 (Plasmodium falciparum, UniProt P61075)", "sequence (P61075 whole entry)": "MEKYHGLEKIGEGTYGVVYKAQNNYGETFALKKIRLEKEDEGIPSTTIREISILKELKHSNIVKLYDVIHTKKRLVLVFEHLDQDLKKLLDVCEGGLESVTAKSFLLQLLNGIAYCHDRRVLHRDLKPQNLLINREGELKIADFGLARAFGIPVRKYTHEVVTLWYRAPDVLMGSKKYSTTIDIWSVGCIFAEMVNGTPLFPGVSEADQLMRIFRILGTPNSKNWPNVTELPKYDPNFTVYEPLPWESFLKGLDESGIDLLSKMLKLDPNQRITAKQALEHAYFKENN", "format": "binding", "conditions": "for Percent binding to PfPK5: 10 μM compound"}, "[2]": {"tested_on": "liver stage P. berghei", "assay": "Time course of liver stage parasite inhibition", "conditions": "inhibitor added to infected liver cells"}, "[3]": {"tested_on": "liver stage P. berghei ANKA", "format": "cell-based"}, "[4]": {"tested_on": "blood stage P. falciparum Dd2", "assay": "Blood stage malaria dose-response assay", "format": "cell-based", "conditions": "read-out: Blood stage malaria IC50"}, "[5]": {"tested_on": "mTOR", "conditions": "read-out: IC50 mTOR; cited from earlier work"}, "[6]": {"tested_on": "liver and blood stage P. berghei", "conditions": "cited from earlier work"}, "[7]": {"tested_on": "P. berghei-luciferase sporozoites", "assay": "Mouse liver stage malaria model, parasite load in livers by in vivo imaging", "set-up": "species or system C57BL/6 mice"}, "[8]": {"tested_on": "P. berghei", "assay": "P. berghei parasitemia in mice after prophylactic treatment", "format": "in vivo", "conditions": "single oral dose 100 mg/kg b.w. before infection"}, "[9]": {"conditions": "mouse, in vivo"}},
  "data": [
    {"smiles": "CN1CC[C@H](c2c(O)cc(O)c3c(=O)cc(-c4ccccc4Cl)oc23)[C@H](O)C1", "note": "[Flavopiridol]", "values": [
      {"measurement": "Percent binding to PfPK5", "setting": "[1]", "result": "> 50", "unit": "%"}
    ]},
    {"smiles": "CCC(=O)N1CCN(c2ccc(-n3c(=O)ccc4cnc5ccc(-c6cnc7ccccc7c6)cc5c43)cc2C(F)(F)F)CC1", "note": "[Torin1]", "values": [
      {"measurement": "Parasite inhibition with 12-hour treatment", "setting": "[2]", "result": "inhibit parasites with only a 12-hour treatment"}
    ]},
    {"smiles": "Nc1ccc(-c2ccc3ncc4ccc(=O)n(-c5cccc(C(F)(F)F)c5)c4c3c2)cn1", "note": "[Torin2]", "values": [
      {"measurement": "IC50", "setting": "[3]; read-out: Liver stage malaria IC50, liver stage", "result": 40, "unit": "nM"},
      {"measurement": "IC50", "setting": "[4]", "result": 1, "unit": "nM"},
      {"measurement": "IC50", "setting": "[5]", "result": "[…]"},
      {"measurement": "Activity in mouse animal model", "setting": "[6]", "result": "exhibits activity against liver and blood stage P. berghei"}
    ]},
    {"smiles": "Cc1nc(N)sc1-c1ccnc(Nc2ccc(N3CCOCC3)cc2)n1", "note": "[CYC-116]", "values": [
      {"measurement": "Stage selectivity (blood stage IC50 vs liver stage IC50)", "setting": "[3]", "result": "inhibited liver stage P. berghei significantly more potently than blood stage P. falciparum"},
      {"measurement": "Parasite load in mouse livers vs vehicle", "setting": "[7]; single oral dose 100 mg/kg b.w. before infection", "result": "significantly reduced parasite load in mouse livers"},
      {"measurement": "P. berghei parasitemia vs vehicle", "setting": "[8]", "result": "reduction in P. berghei parasitemia"}
    ]},
    {"smiles": "FC(F)c1nc2ccccc2n1-c1nc(N2CCOCC2)nc(N2CCOCC2)n1", "note": "[ZSTK474]", "values": [
      {"measurement": "Parasite inhibition with 12-hour treatment", "setting": "[2]", "result": "inhibit parasites with only a 12-hour treatment"}
    ]},
    {"smiles": "CC(C)(C)c1cnc(CSc2cnc(NC(=O)C3CCNCC3)s2)o1", "note": "[SNS-032]", "values": [
      {"measurement": "Parasite load in mouse livers vs vehicle", "setting": "[7]; single oral dose 75 mg/kg b.w. before infection", "result": "reduce parasite load in mouse livers"},
      {"measurement": "Toxicity to mice", "setting": "[9]", "result": "relatively limited toxicity to mice"}
    ]},
    {"smiles": "Cc1ccc([N+](=O)[O-])cc1S(=O)(=O)N(C)/N=C/c1cnc2ccc(Br)cn12", "note": "[PIK-75]", "values": [
      {"measurement": "Percent binding to PfPK5", "setting": "[1]", "result": "> 50", "unit": "%"},
      {"measurement": "Kd", "setting": "[1]; read-out: Kd for PfPK5, competition binding, absence of ATP", "result": "< 10000", "unit": "nM"}
    ]},
    {"smiles": "CNC(=O)c1cc(Oc2ccc(NC(=O)Nc3ccc(Cl)c(C(F)(F)F)c3)cc2)ccn1", "note": "[Nexavar]", "values": [
      {"measurement": "Inhibition of parasite load in liver cells", "setting": "[3]; low micromolar concentration", "result": "completely inhibited parasite load in liver cells"}
    ]}
  ]
}
